According to paper PMC7994318, “Cancer-associated cells release citrate to support tumour metastatic progression” (Life Science Alliance, 2021):

Molecular target: T1, pmCiC (plasma membrane citrate transporter) (Homo sapiens, UniProt P53007)
T1 construct: gene SLC25A1; His-tagged pmCiC expressed in Sf9 cells, solubilized in dodecylmaltoside and purified by Ni-NTA
Assay: Trp fluorescence quenching titration of purified protein
Type: binding

T1 sequence (P53007 14-311): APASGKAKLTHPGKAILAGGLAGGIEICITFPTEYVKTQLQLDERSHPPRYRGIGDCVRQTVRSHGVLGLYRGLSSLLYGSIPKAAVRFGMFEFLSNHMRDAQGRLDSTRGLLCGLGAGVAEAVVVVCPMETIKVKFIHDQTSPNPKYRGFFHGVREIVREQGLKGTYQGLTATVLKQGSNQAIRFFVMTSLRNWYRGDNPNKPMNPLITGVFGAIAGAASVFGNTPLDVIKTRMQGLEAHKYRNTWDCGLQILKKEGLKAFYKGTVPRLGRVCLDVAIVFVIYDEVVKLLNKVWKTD

For O=C(O)CC(O)(CC(=O)O)C(=O)O [citrate], the Kd was 16 mM.
